The record followed here is ChEMBL document CHEMBL1132301, “Carbonic anhydrase inhibitors. Synthesis of water-soluble, topically effective, intraocular pressure-lowering aromatic/heterocyclic sulfonamides containing cationic or anionic moieties: is the tail more important than the ring?” (J Med Chem, 1999).

≈ marks a conversion by molar mass, not a printed value.

For data set [1], the species on record is Oryctolagus cuniculus. It counts as functional, Eye.
Description: In vivo fall of IOP of normotensive rabbits after treatment with 1 drop(50 microL) of 2% solution of CA inhibitor with pH value 7.4 into the eye at 90 min.
The species entered for data set [2] is Oryctolagus cuniculus. It counts as functional, Eye. This is another data set of the same source.
Description: In vivo fall of IOP of normotensive rabbits after treatment with 1 drop(50 microL) of 2% solution of CA inhibitor with pH value 7.4 into the eye at 60 min
Data set [3] is filed under the species Oryctolagus cuniculus. It counts as functional, Eye. This is another data set of the same source.
Description: In vivo fall of IOP of Glaucomatous rabbits after treatment with 1 drop(50 microL) of 2% solution of CA inhibitor with pH value 7.4 into the eye at 0 min
For data set [4], the species on record is Oryctolagus cuniculus. It counts as functional, Eye. This is another data set of the same source.
Description: In vivo fall of IOP of normotensive rabbits after treatment with 1 drop(50 microL) of 2% solution of CA inhibitor with pH value 8.4 into the eye at 30 min
Data set [5] is filed under the species Oryctolagus cuniculus. It counts as functional, Eye. This is another data set of the same source.
Description: In vivo fall of IOP of normotensive rabbits after treatment with 1 drop(50 microL) of 2% solution of CA inhibitor with pH value 8.4 into the eye at 90 min.
The species entered for data set [6] is Oryctolagus cuniculus. In kind it is functional, Eye. The source holds these as a separate data set.
Description: Drug concentration was tested in ocular fluids and tissues after 2 hour following the corneal application in normotensive albino rabbits on cilirary process
Data set [7] is filed under the species Oryctolagus cuniculus. It counts as functional, Eye. The source holds these as a separate data set.
Description: In vivo fall of IOP of normotensive rabbits after treatment with 1 drop(50 microL) of 2% solution of CA inhibitor with pH value 8.4 into the eye at 0 min
The species named for data set [8] is Oryctolagus cuniculus. It counts as functional, Eye. This is another data set of the same source.
Description: Drug concentration was tested in ocular fluids and tissues after 2 hour following the corneal application in normotensive albino rabbits on aqueous humor
The species entered for data set [9] is Oryctolagus cuniculus. It counts as functional, Eye. This is another data set of the same source.
Description: Drug concentration was tested in ocular fluids and tissues after 1 hour following the corneal application in normotensive albino rabbits on aqueous humor
For data set [10], the species on record is Oryctolagus cuniculus. In kind it is functional, Eye. This is another data set of the same source.
Description: In vivo fall of IOP of normotensive rabbits after treatment with 1 drop(50 microL) of 2% solution of CA inhibitor with pH value 7.4 into the eye at 0 min
The species entered for data set [11] is Oryctolagus cuniculus. It counts as functional, Eye. This is another data set of the same source.
Description: In vivo fall of IOP of Glaucomatous rabbits after treatment with 1 drop(50 microL) of 2% solution of CA inhibitor with pH value 7.4 into the eye at 60 min
The species entered for data set [12] is Oryctolagus cuniculus. In kind it is functional, Eye. This is another data set of the same source.
Description: Drug concentration was tested in ocular fluids and tissues after 2 hour following the corneal application in normotensive albino rabbits on cornea
Data set [13] is filed under the species Oryctolagus cuniculus. In kind it is functional, Eye. The source holds these as a separate data set.
Description: In vivo fall of IOP of Glaucomatous rabbits after treatment with 1 drop(50 microL) of 2% solution of CA inhibitor with pH value 7.4 into the eye at 90 min.
The species named for data set [14] is Oryctolagus cuniculus. It counts as functional, Eye. The source holds these as a separate data set.
Description: In vivo fall of IOP of Glaucomatous rabbits after treatment with 1 drop(50 microL) of 2% solution of CA inhibitor with pH value 7.4 into the eye at 30 min
The species named for data set [15] is Oryctolagus cuniculus. It counts as functional, Eye. This is another data set of the same source.
Description: Drug concentration was tested in ocular fluids and tissues after 1 hour following the corneal application in normotensive albino rabbits on cilirary process
Data set [16] is filed under the species Oryctolagus cuniculus. It counts as functional, Eye. This is another data set of the same source.
Description: In vivo fall of IOP of normotensive rabbits after treatment with 1 drop(50 microL) of 2% solution of CA inhibitor with pH value 7.4 into the eye at 30 min
Data set [17] is filed under the species Oryctolagus cuniculus. It counts as functional, Eye. This is another data set of the same source.
Description: In vivo fall of IOP of normotensive rabbits after treatment with 1 drop(50 microL) of 2% solution of CA inhibitor with pH value 8.4 into the eye at 60 min
Data set [18] is filed under the species Oryctolagus cuniculus. It counts as functional, Eye. The source holds these as a separate data set.
Description: Drug concentration was tested in ocular fluids and tissues after 1 hour following the corneal application in normotensive albino rabbits on cornea
Data set [19] concerns Oryctolagus cuniculus. The experiment in a line: In vivo fall of IOP of normotensive rabbits after treatment with 1 drop(50 microL) of […]% solution of CA inhibitor with pH value 8.5 into the eye at 60 min. In kind it is functional.
Data set [20] addresses T1, Carbonic anhydrase 1 (Homo sapiens, UniProt P00915).
Description: Inhibitory activity against human cloned carbonic anhydrase isozyme I (hCA I, cytosolic form).
Data set [21] has as its target T2, Carbonic anhydrase 2 (Homo sapiens, UniProt P00918).
Description: Inhibitory activity against human recombinant carbonic anhydrase II
For data set [22], the target named is T3, Carbonic anhydrase 4 (Bos taurus, UniProt Q95323).
T3 sequence (Q95323 whole entry): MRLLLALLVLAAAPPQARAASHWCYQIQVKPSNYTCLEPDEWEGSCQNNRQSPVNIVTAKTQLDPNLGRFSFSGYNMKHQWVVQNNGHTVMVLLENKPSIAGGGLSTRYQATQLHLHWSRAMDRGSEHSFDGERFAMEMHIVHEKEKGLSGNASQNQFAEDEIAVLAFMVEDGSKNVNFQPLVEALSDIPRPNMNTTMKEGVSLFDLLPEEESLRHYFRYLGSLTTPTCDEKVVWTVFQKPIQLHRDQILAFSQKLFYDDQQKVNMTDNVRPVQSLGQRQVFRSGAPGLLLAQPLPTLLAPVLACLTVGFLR
Description: Inhibitory activity against bovine lung microsomes carbonic anhydrase isozyme IV (bCA IV).

The species named for data set [23] is Oryctolagus cuniculus.
Description: Compound was tested in vitro for corneal permeability of compound across the Denuded epithelial cornea obtained from rabbit
Data set [24] in a line: Compound was tested for solubility in pH buffer, at 25 degree C.(As hydrochloride salts). In kind it is ADME.
A short description of data set [25]: Compound was tested for solubility in pH buffer, at 25 degree C.(As sodium hydroxylate salts). In kind it is ADME.
The species named for data set [26] is Oryctolagus cuniculus. This is another data set of the same source.
Description: Compound was tested in vitro for corneal permeability of compound across the intact cornea obtained from rabbit
For data set [27] the following is noted: octanol/water.
Description: Partition coefficient (logD) (chloroform/buffer)
For data set [28], the species on record is Oryctolagus cuniculus. In kind it is functional, Eye. This is another data set of the same source.
Description: In vivo fall of IOP of normotensive rabbits after treatment with 1 drop(50 microL) of 2% solution of CA inhibitor with pH value 5.5 into the eye at 60 min
The species named for data set [29] is Oryctolagus cuniculus. In kind it is functional, Eye. This is another data set of the same source.
Description: In vivo fall of IOP of Glaucomatous rabbits after treatment with 1 drop(50 microL) of 2% solution of CA inhibitor with pH value 5.5 into the eye at 30 min
The species named for data set [30] is Oryctolagus cuniculus. It counts as functional, Eye. This is another data set of the same source.
Description: In vivo fall of IOP of normotensive rabbits after treatment with 1 drop(50 microL) of 2% solution of CA inhibitor with pH value 5.5 into the eye at 30 min
The species named for data set [31] is Oryctolagus cuniculus. It counts as functional, Eye. The source holds these as a separate data set.
Description: In vivo fall of IOP of normotensive rabbits after treatment with 1 drop(50 microL) of 2% solution of CA inhibitor with pH value 5.5 into the eye at 90 min.
For data set [32], the species on record is Oryctolagus cuniculus. In kind it is functional, Eye. This is another data set of the same source.
Description: In vivo fall of IOP of Glaucomatous rabbits after treatment with 1 drop(50 microL) of 2% solution of CA inhibitor with pH value 5.5 into the eye at 60 min
For data set [33], the species on record is Oryctolagus cuniculus. It counts as functional, Eye. The source holds these as a separate data set.
Description: In vivo fall of IOP of Glaucomatous rabbits after treatment with 1 drop(50 microL) of 2% solution of CA inhibitor with pH value 5.5 into the eye at 0 min
Data set [34] is filed under the species Oryctolagus cuniculus. In kind it is functional, Eye. This is another data set of the same source.
Description: In vivo fall of IOP of Glaucomatous rabbits after treatment with 1 drop(50 microL) of 2% solution of CA inhibitor with pH value 5.5 into the eye at 90 min.
Data set [35] is described as follows: Compound was tested for solubility in pH buffer, at 25 degree C. In kind it is ADME.
The target of data set [36] is T1, Carbonic anhydrase 1. This is another data set of the same source.
Description: Inhibition of human cloned Carbonic anhydrase I (hCA I,cytosolic form)
Data set [37] concerns the target T2, Carbonic anhydrase 2. This is another data set of the same source.
Description: Inhibitory activity against human cloned Carbonic anhydrase II (hCA II, cytosolic form).
The species named for data set [38] is Oryctolagus cuniculus. It counts as functional, Eye. The source holds these as a separate data set.
Description: In vivo fall of IOP of normotensive rabbits after treatment with 1 drop(50 microL) of 2% solution of CA inhibitor with pH value 5.9 into the eye at 30 min
Data set [39] is filed under the species Oryctolagus cuniculus. In kind it is functional, Eye. The source holds these as a separate data set.
Description: In vivo fall of IOP of normotensive rabbits after treatment with 1 drop(50 microL) of 2% solution of CA inhibitor with pH value 5.9 into the eye at 90 min.
The species entered for data set [40] is Oryctolagus cuniculus. It counts as functional, Eye. The source holds these as a separate data set.
Description: In vivo fall of IOP of normotensive rabbits after treatment with 1 drop(50 microL) of 2% solution of CA inhibitor with pH value 5.9 into the eye at 60 min
Data set [41] is filed under the species Oryctolagus cuniculus. In kind it is functional, Eye. This is another data set of the same source.
Description: In vivo fall of IOP of normotensive rabbits after treatment with 1 drop(50 microL) of 2% solution of CA inhibitor with pH value 5.9 into the eye at 0 min

T1 sequence (P00915 whole entry): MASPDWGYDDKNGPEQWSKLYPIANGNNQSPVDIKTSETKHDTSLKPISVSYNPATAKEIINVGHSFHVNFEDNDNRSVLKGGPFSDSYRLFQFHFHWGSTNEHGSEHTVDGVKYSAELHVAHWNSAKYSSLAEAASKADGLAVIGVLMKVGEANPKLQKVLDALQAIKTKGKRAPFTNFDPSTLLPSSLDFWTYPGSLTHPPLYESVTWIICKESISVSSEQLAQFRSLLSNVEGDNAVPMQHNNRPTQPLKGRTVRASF

In the case of `CCN(C(=O)c1cccc(C(=O)[O-])n1)C1CC(C)S(=O)(=O)c2sc(S(N)(=O)=O)cc21.[Na+]` (configuration not stated), the “Delta IOP” value in data set [1] worked out at 9.8 mmHg; in data set [2] it was 7.2 mmHg; in data set [3], 0 mmHg; in data set [4], 3.6 mmHg; in [5], 9.9 mmHg; in [7], 0 mmHg. Moreover, the “Delta IOP” value in [10] came out at 0 mmHg; in data set [11] it was 10.1 mmHg; in data set [13], 11.8 mmHg; in [14], 6.5 mmHg; in data set [16], 3.5 mmHg; in [17] it was 7.7 mmHg. The Drug concentration in data set [6] was 10 µM; in [8], 39 µM; in [9] it was 278 µM; in data set [12], 44 µM; in data set [15], 47 µM; in data set [18], 113 µM.
In the case of `NS(=O)(=O)c1ccc(NC(=O)c2cccc(C(=O)[O-])n2)c(F)c1.[Na+]`, in data set [19], the “pDelta IOP” value is listed as 4.8 mmHg.
In the case of `CCN(C(=O)c1cccc(C(=O)O)n1)C1CC(C)S(=O)(=O)c2sc(S(N)(=O)=O)cc21` (configuration not stated), the figures for the inhibitory constant (Ki) in data set [20], in data set [21] and in data set [22] were 400 nM, 5 nM and 17 nM, respectively. Besides, the Kin in data set [23] was determined as 5900 h⁻¹; in data set [26] it was 2800 h⁻¹. The values for the solubility in [24] and in data set [25] were 58 mM and 64 mM, respectively. This compound also displayed a log distribution coefficient (logD) in [27] of 1.736.
As to `CCN(C(=O)c1cccc(C(=O)O)n1)C1CC(C)S(=O)(=O)c2sc(S(N)(=O)=O)cc21.Cl` (configuration not stated), the “Delta IOP” value in data set [28] turned out to be 6.8 mmHg; in [29], 6.5 mmHg; in [30], 3.5 mmHg; in [31], 9.1 mmHg; in data set [32], 9.9 mmHg; in data set [33], 0 mmHg. In addition, in [34], the “Delta IOP” value was found to be 12.1 mmHg.
Regarding `Cl.NS(=O)(=O)c1nnc(NC(=O)CCN2C(=O)c3cccnc3C2=O)s1`, the Drug concentration in data set [6] was 12 µM; in data set [8], 42 µM; in [9], 280 µM; in data set [12], 45 µM; in [15], 50 µM; in data set [18] it was 158 µM.
As to `NS(=O)(=O)c1nnc(NC(=O)c2cccc(C(=O)O)n2)s1`, the Ki worked out at 36 nM in data set [20], 6 nM in data set [21] and 21 nM in [22]. The results for the Kin in [23] and in [26] were 6400 h⁻¹ and 1100 h⁻¹, respectively. This compound also yielded a solubility in data set [35] of 83 mM (≈ 27.3 mg/mL). In data set [27], this compound registered a logD of 0.085.
For `Cn1nc(S(N)(=O)=O)s/c1=N\C(=O)c1cccc(C(=O)O)n1`, the Ki in data set [20] was 35 nM; in data set [21], 7 nM; in data set [22] it was 19 nM. Further, the values for the Kin in [23] and in data set [26] were 8500 h⁻¹ and 3600 h⁻¹, respectively. This compound also yielded a solubility in data set [35] of 79 mM (≈ 27.1 mg/mL). The compound further returned a logD in [27] of 0.428.
As to `NS(=O)(=O)c1ccc(NC(=O)c2cccc(C(=O)O)n2)c(F)c1`, in [21], the Ki stood at 8 nM. Moreover, the Kin in [23] turned out to be 7000 h⁻¹; in data set [26] it was 1600 h⁻¹. Also, the solubility in data set [35] came to 66 mM (≈ 22.4 mg/mL). The same compound had a logD in [27] of 0.117.
For `NS(=O)(=O)c1nnc(N2C(=O)c3cccnc3C2=O)s1`, the Ki is 18 nM in [22], 39 nM in data set [36] and 8 nM in data set [37]. Also, the values for the Kin in data set [23] and in data set [26] were 7600 h⁻¹ and 2500 h⁻¹, respectively. The same compound came in with a solubility in data set [35] of 72 mM (≈ 22.4 mg/mL). Further, in [27], the logD was 0.315.
In the case of `NS(=O)(=O)c1nc2ccc(N3C(=O)c4cccnc4C3=O)cc2s1.O=S(=O)(O)C(F)(F)F`, the “Delta IOP” value in data set [38] is 2 mmHg; in [39], 4 mmHg; in [40] it was 4.4 mmHg; in [41], 0 mmHg.
With `NS(=O)(=O)c1nnc(NC(=O)CCN2C(=O)c3cccnc3C2=O)s1`, the Kin stood at 9700 h⁻¹ in data set [23] and 3800 h⁻¹ in data set [26]. Also, the Ki in data set [36] is 18 nM; in data set [37], 3 nM. The solubility in data set [35] was 81 mM (≈ 31 mg/mL). The logD in data set [27] came out at 0.449.
In [35], `CCOc1ccc2nc(S(N)(=O)=O)sc2c1` [ETHOXZOLAMIDE] showed a solubility of 0.04 mM (≈ 0.0103 mg/mL).
